Experimental data reported in ChEMBL document CHEMBL3885881, “DrugMatrix”.

Species on record: Rattus norvegicus
Test: DrugMatrix - Regimen: Daily Repeat
Format: toxicity, organism-based, Sprague-Dawley
Design: regimen Daily Repeat, gender Male, age 6-8 weeks
Conditions: in vivo, po, route oral GAVAGE, vehicle .5 % CMC; for ABSOLUTE BASOPHIL / ABSOLUTE EOSINOPHIL / ABSOLUTE LYMPHOCYTE / ABSOLUTE MONOCYTE / ABSOLUTE SEGMENTED NEUTROPHIL / BASOPHIL / EOSINOPHIL / ERYTHROCYTE COUNT / HEMATOCRIT / HEMOGLOBIN / LEUKOCYTE COUNT / LYMPHOCYTE / MEAN CORPUSCULAR HEMOGLOBIN / MEAN CORPUSCULAR HEMOGLOBIN CONCENTRATION / MEAN CORPUSCULAR VOLUME / MONOCYTE / NEUTROPHIL / NUCLEATED RED BLOOD CELLS / PLATELET COUNT: tissue Blood; for ALANINE AMINOTRANSFERASE / ALBUMIN / ALKALINE PHOSPHATASE / ASPARTATE AMINOTRANSFERASE / BLOOD UREA NITROGEN / CARBON DIOXIDE / CHLORIDE / CHOLESTEROL / CREATINE PHOSPHOKINASE / CREATININE / GLUCOSE / LACTATE DEHYDROGENASE / LIPASE / PHOSPHORUS / POTASSIUM / SODIUM / TOTAL BILIRUBIN / TOTAL PROTEIN / URIC ACID: tissue Plasma
[1] = 1200 mg/kg, 120 h, dose level High, time 5 day
[2] = […], 72 h, dose 3.3 mg/Kg, dose level Low, time 3 day
[3] = […], 120 h, dose 3.3 mg/Kg, dose level Low, time 5 day

With CCC[C@@H]1C[C@@H](C(=O)N[C@@H]([C@H]2O[C@H](SC)[C@H](O)[C@@H](O)[C@H]2O)[C@@H](C)O)N(C)C1 [LINCOMYCIN] the “ABSOLUTE BASOPHIL” value [1] was 0 CELLS/uL, the “ABSOLUTE EOSINOPHIL” value [1] was 0 CELLS/uL and the “ABSOLUTE LYMPHOCYTE” value [1] was 15154 CELLS/uL. For the same compound, the “ABSOLUTE MONOCYTE” value [1] was 0 CELLS/uL, the “ABSOLUTE SEGMENTED NEUTROPHIL” value [1] was 1379.33 CELLS/uL and the BASOPHIL [1] was 0%. For the same compound, the EOSINOPHIL [1] was 0%, the “ERYTHROCYTE COUNT” value [1] was 5.63 x10E6/uL and the HEMATOCRIT [1] was 35.37%. The HEMOGLOBIN [1] was 14.33 G/DL, the “LEUKOCYTE COUNT” value [1] was 16.53 x10E3/uL and the LYMPHOCYTE [1] was 91.67%. The “MEAN CORPUSCULAR HEMOGLOBIN” value [1] was 25.5 pg, the “MEAN CORPUSCULAR HEMOGLOBIN CONCENTRATION” value [1] was 40.53 G/DL and the “MEAN CORPUSCULAR VOLUME” value [1] was 62.9 fL. The MONOCYTE [1] was 0%, the NEUTROPHIL [1] was 8.33% and the “NUCLEATED RED BLOOD CELLS” value [1] was 0 /100WBC. The “PLATELET COUNT” value [1] was 1331 x10E3/uL, the “ALANINE AMINOTRANSFERASE” value [1] was 58.33 u/L and the ALBUMIN [1] was 4.13 G/DL. The “ALKALINE PHOSPHATASE” value [1] was 343.67 u/L, the “ASPARTATE AMINOTRANSFERASE” value [1] was 92.33 u/L and the “BLOOD UREA NITROGEN” value [1] was 18.33 mg/dL. The “CARBON DIOXIDE” value [1] was 25 mmol/L, the CHLORIDE [1] was 100.67 MEQ/L and the CHOLESTEROL [1] was 73.67 mg/dL. For the same compound, the “CREATINE PHOSPHOKINASE” value [1] was 558 u/L, the CREATININE [1] was 0.27 mg/dL and the GLUCOSE [1] was 137 mg/dL. The “LACTATE DEHYDROGENASE” value [1] was 505.33 u/L, the LIPASE [1] was 12 u/L and the PHOSPHORUS [1] was 12.77 mg/dL. The POTASSIUM [1] was 6.92 MEQ/L, the SODIUM [1] was 143.1 MEQ/L and the “TOTAL BILIRUBIN” value [1] was 0.17 mg/dL. The “TOTAL PROTEIN” value [1] was 6.1 G/DL, the “URIC ACID” value [1] was 1.63 mg/dL and the “ABSOLUTE BASOPHIL” value [2] was 0 CELLS/uL. The “ABSOLUTE EOSINOPHIL” value [2] was 46 CELLS/uL, the “ABSOLUTE LYMPHOCYTE” value [2] was 14091.33 CELLS/uL and the “ABSOLUTE MONOCYTE” value [2] was 108.67 CELLS/uL. For the same compound, the “ABSOLUTE SEGMENTED NEUTROPHIL” value [2] was 1220.67 CELLS/uL, the BASOPHIL [2] was 0% and the EOSINOPHIL [2] was 0.33%. The “ERYTHROCYTE COUNT” value [2] was 5.49 x10E6/uL, the HEMATOCRIT [2] was 34.5% and the HEMOGLOBIN [2] was 13.93 G/DL. The “LEUKOCYTE COUNT” value [2] was 15.47 x10E3/uL, the LYMPHOCYTE [2] was 91% and the “MEAN CORPUSCULAR HEMOGLOBIN” value [2] was 25.43 pg. For the same compound, the “MEAN CORPUSCULAR HEMOGLOBIN CONCENTRATION” value [2] was 40.4 G/DL, the “MEAN CORPUSCULAR VOLUME” value [2] was 63 fL and the MONOCYTE [2] was 0.67%. The NEUTROPHIL [2] was 8%, the “NUCLEATED RED BLOOD CELLS” value [2] was 0 /100WBC and the “PLATELET COUNT” value [2] was 1331.67 x10E3/uL. The “ALANINE AMINOTRANSFERASE” value [2] was 53.67 u/L, the ALBUMIN [2] was 4.23 G/DL and the “ALKALINE PHOSPHATASE” value [2] was 358.67 u/L. For the same compound, the “ASPARTATE AMINOTRANSFERASE” value [2] was 85.33 u/L, the “BLOOD UREA NITROGEN” value [2] was 15.67 mg/dL and the “CARBON DIOXIDE” value [2] was 29.67 mmol/L. For the same compound, the CHLORIDE [2] was 101 MEQ/L, the CHOLESTEROL [2] was 72 mg/dL and the “CREATINE PHOSPHOKINASE” value [2] was 274.33 u/L. The CREATININE [2] was 0.21 mg/dL, the GLUCOSE [2] was 154.67 mg/dL and the “LACTATE DEHYDROGENASE” value [2] was 216.67 u/L. It also gave an LIPASE [2] of 9.67 u/L, a PHOSPHORUS [2] of 12.97 mg/dL and a POTASSIUM [2] of 7.32 MEQ/L. For the same compound, the SODIUM [2] was 144.13 MEQ/L, the “TOTAL BILIRUBIN” value [2] was 0.2 mg/dL and the “TOTAL PROTEIN” value [2] was 5.83 G/DL. For the same compound, the “URIC ACID” value [2] was 2.13 mg/dL, the “ABSOLUTE BASOPHIL” value [3] was 0 CELLS/uL and the “ABSOLUTE EOSINOPHIL” value [3] was 0 CELLS/uL. For the same compound, the “ABSOLUTE LYMPHOCYTE” value [3] was 14059.67 CELLS/uL, the “ABSOLUTE MONOCYTE” value [3] was 0 CELLS/uL and the “ABSOLUTE SEGMENTED NEUTROPHIL” value [3] was 1173.67 CELLS/uL. The BASOPHIL [3] was 0%, the EOSINOPHIL [3] was 0% and the “ERYTHROCYTE COUNT” value [3] was 5.56 x10E6/uL. For the same compound, the HEMATOCRIT [3] was 34.53%, the HEMOGLOBIN [3] was 13.97 G/DL and the “LEUKOCYTE COUNT” value [3] was 15.23 x10E3/uL. For the same compound, the LYMPHOCYTE [3] was 92.33%, the “MEAN CORPUSCULAR HEMOGLOBIN” value [3] was 25.1 pg and the “MEAN CORPUSCULAR HEMOGLOBIN CONCENTRATION” value [3] was 40.43 G/DL. The “MEAN CORPUSCULAR VOLUME” value [3] was 62.13 fL, the MONOCYTE [3] was 0% and the NEUTROPHIL [3] was 7.67%. For the same compound, the “NUCLEATED RED BLOOD CELLS” value [3] was 0 /100WBC, the “PLATELET COUNT” value [3] was 1194.33 x10E3/uL and the “ALANINE AMINOTRANSFERASE” value [3] was 57.33 u/L. For the same compound, the ALBUMIN [3] was 4.37 G/DL, the “ALKALINE PHOSPHATASE” value [3] was 326 u/L and the “ASPARTATE AMINOTRANSFERASE” value [3] was 107.67 u/L. For the same compound, the “BLOOD UREA NITROGEN” value [3] was 17 mg/dL, the “CARBON DIOXIDE” value [3] was 28 mmol/L and the CHLORIDE [3] was 100.33 MEQ/L. The CHOLESTEROL [3] was 76.67 mg/dL, the “CREATINE PHOSPHOKINASE” value [3] was 786.33 u/L and the CREATININE [3] was 0.23 mg/dL. The GLUCOSE [3] was 160.67 mg/dL, the “LACTATE DEHYDROGENASE” value [3] was 134.33 u/L and the LIPASE [3] was 9 u/L. It also gave a PHOSPHORUS [3] of 12.5 mg/dL, a POTASSIUM [3] of 6.98 MEQ/L and an SODIUM [3] of 144.77 MEQ/L. The “TOTAL BILIRUBIN” value [3] was 0.17 mg/dL, the “TOTAL PROTEIN” value [3] was 6.33 G/DL and the “URIC ACID” value [3] was 2.3 mg/dL.
